Patent US7915235B2, “High affinity ligands bind to clostridium difficile toxin A” (priority 2006, dated 2011)
Values joined by “and” are separate entries in the source; they are usually repeats but may differ in a detail not shown here. Equal entries are not always repeated.

System: C. difficile-associated diarrhea (CDAD)
Conditions: oral metronidazole 500 mg TID; oral vancomycin 125 mg every 6 h; cited from earlier work
For `Cc1ncc([N+](=O)[O-])n1CCO` [metronidazole], the response rates is listed as about 90%. For `CN[C@H](CC(C)C)C(=O)N[C@H]1C(=O)N[C@@H](CC(N)=O)C(=O)N[C@H]2C(=O)N[C@H]3C(=O)N[C@H](C(=O)N[C@H](C(=O)O)c4cc(O)cc(O)c4-c4cc3ccc4O)[C@H](O)c3ccc(c(Cl)c3)Oc3cc2cc(c3O[C@@H]2O[C@H](CO)[C@@H](O)[C@H](O)[C@H]2O[C@H]2C[C@](C)(N)[C@H](O)[C@H](C)O2)Oc2ccc(cc2Cl)[C@H]1O` [vancomycin], the response rates is given as about 90%.

System: C. difficile associated diarrhea
Conditions: per protocol population with recurrent CDAD at enrollment; vancomycin or 6 g tolevamer; cited from earlier work
For `CN[C@H](CC(C)C)C(=O)N[C@H]1C(=O)N[C@@H](CC(N)=O)C(=O)N[C@H]2C(=O)N[C@H]3C(=O)N[C@H](C(=O)N[C@H](C(=O)O)c4cc(O)cc(O)c4-c4cc3ccc4O)[C@H](O)c3ccc(c(Cl)c3)Oc3cc2cc(c3O[C@@H]2O[C@H](CO)[C@@H](O)[C@H](O)[C@H]2O[C@H]2C[C@](C)(N)[C@H](O)[C@H](C)O2)Oc2ccc(cc2Cl)[C@H]1O` [vancomycin], the definitive recurrence rate is given as 27%.

Same assay, conditions: per protocol population; 125 mg vancomycin QID or 6 g tolevamer; cited from earlier work
For `CN[C@H](CC(C)C)C(=O)N[C@H]1C(=O)N[C@@H](CC(N)=O)C(=O)N[C@H]2C(=O)N[C@H]3C(=O)N[C@H](C(=O)N[C@H](C(=O)O)c4cc(O)cc(O)c4-c4cc3ccc4O)[C@H](O)c3ccc(c(Cl)c3)Oc3cc2cc(c3O[C@@H]2O[C@H](CO)[C@@H](O)[C@H](O)[C@H]2O[C@H]2C[C@](C)(N)[C@H](O)[C@H](C)O2)Oc2ccc(cc2Cl)[C@H]1O` [vancomycin], the “definitive recurrence rate confirmed by a positive toxin assay” value is listed as 19%.

Target: Clostridium difficile toxin A (Clostridioides difficile, UniProt P16154)
Sequence (P16154 whole entry, looked up): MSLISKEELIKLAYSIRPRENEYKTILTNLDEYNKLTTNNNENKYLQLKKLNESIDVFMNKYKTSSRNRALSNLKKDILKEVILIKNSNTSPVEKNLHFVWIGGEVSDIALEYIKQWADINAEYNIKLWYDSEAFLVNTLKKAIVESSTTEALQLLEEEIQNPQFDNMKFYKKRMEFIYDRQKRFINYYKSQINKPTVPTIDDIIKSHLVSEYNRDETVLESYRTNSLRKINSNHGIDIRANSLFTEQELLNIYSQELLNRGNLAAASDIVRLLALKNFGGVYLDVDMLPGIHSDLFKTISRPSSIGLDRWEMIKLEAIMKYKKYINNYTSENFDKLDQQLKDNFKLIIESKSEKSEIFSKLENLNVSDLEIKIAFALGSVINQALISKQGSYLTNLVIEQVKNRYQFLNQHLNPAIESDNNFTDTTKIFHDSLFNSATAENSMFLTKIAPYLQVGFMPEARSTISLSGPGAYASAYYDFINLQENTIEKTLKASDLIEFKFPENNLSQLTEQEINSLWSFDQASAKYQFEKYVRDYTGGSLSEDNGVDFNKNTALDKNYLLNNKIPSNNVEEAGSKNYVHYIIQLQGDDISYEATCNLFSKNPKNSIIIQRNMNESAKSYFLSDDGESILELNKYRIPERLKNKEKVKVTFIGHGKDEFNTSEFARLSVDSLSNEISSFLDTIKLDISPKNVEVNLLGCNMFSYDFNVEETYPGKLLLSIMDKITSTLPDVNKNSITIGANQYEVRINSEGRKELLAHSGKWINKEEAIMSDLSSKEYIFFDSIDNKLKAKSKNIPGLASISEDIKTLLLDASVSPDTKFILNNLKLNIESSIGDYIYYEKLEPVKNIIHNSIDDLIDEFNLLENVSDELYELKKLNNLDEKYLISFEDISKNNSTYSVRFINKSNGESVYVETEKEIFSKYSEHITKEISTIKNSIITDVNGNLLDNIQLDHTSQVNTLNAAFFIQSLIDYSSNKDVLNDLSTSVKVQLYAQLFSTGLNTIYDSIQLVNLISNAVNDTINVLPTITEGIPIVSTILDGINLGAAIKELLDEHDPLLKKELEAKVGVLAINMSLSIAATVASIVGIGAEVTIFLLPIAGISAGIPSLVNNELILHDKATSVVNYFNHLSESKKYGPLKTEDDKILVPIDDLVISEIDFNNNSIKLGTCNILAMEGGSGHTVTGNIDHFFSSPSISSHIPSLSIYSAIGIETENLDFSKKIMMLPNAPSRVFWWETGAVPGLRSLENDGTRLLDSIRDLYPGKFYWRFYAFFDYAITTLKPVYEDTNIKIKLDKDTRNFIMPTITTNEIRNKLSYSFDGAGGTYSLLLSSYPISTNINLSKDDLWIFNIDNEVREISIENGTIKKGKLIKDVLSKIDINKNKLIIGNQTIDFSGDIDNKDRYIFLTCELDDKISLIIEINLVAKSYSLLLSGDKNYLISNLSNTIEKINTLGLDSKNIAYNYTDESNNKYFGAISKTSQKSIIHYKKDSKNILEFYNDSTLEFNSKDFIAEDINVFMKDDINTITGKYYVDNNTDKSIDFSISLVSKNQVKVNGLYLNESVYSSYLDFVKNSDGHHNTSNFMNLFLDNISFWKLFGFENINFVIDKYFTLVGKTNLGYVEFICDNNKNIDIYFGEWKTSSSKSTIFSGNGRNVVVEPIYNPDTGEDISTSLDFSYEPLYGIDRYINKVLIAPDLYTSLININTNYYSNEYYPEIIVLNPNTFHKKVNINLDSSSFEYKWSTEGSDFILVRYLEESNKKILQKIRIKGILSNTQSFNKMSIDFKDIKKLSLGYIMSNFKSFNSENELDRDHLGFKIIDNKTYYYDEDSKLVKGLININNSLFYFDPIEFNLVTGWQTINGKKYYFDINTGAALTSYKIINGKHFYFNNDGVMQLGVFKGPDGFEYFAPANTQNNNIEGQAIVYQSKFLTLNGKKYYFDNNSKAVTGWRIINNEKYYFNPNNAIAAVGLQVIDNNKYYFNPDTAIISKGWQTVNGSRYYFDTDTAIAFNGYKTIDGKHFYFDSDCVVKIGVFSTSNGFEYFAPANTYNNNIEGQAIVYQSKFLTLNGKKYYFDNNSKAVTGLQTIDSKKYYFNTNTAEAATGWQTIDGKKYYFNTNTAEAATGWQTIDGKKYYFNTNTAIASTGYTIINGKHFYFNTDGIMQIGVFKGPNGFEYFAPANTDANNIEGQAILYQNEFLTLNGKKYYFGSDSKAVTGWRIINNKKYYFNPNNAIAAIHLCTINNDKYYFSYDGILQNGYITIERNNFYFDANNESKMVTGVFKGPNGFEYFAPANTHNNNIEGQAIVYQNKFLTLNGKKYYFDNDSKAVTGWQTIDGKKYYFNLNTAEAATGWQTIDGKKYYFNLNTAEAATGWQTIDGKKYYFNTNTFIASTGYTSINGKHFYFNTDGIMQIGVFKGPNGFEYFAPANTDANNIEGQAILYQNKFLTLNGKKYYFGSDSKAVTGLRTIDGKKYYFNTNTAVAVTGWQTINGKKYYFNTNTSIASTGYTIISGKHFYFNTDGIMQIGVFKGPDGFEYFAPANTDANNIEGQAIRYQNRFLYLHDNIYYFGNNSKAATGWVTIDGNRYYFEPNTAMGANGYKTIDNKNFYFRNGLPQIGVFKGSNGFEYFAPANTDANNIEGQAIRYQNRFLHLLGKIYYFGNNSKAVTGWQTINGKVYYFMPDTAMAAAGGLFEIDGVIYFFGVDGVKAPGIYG
Conditions: toxin A applied at 200 micrograms/ml; detected with PCG4 antibody and goat anti-mouse Alexa488
With `CC(=O)N[C@@H]1[C@@H](O[C@@H]2O[C@@H](C)[C@@H](O)[C@@H](O)[C@@H]2O)[C@H](O[C@@H]2O[C@H](CO)[C@H](O)[C@H](O)[C@H]2O)[C@@H](CO)O[C@H]1O` [Lewis×, Galb1-4[Fuca1-3]GlcNAcb] the “fluorescence (FL) signal” value was 122 and 218. With “Galb1-3(Fuca1-4)GlcNAcb1-3Galb1-4GlcNAcb-” the “fluorescence (FL) signal” value was 29098. For “NeuAca2-3Galb1-3GlcNAcb1-3Galb1-4GlcNAcb-”, the “fluorescence (FL) signal” value was 4435. In the case of Gala1-3Galb1-4(Fuca1-3)GlcNAcb-, the “fluorescence (FL) signal” value is reported as 1814. With “GalNAca1-3(Fuca1-2)Galb1-4(Fuca1-3)GlcNAcb-” the “fluorescence (FL) signal” value was 327. For “Gala1-3(Fuca1-2)Galb1-4(Fuca1-3)GlcNAcb-”, the “fluorescence (FL) signal” value was 789. In the case of “NeuAca2-3Galb1-3(Fuca1-4)GlcNAcb1-3Galb1-4(Fuca1-3)GlcNAcb-”, the “fluorescence (FL) signal” value is reported as 14911. In the case of GalNAca1-3(Fuca1-2)Galb1-4GlcNAcb-, the “fluorescence (FL) signal” value is reported as 188. In the case of `CC(=O)N[C@@H]1[C@@H](O)[C@H](O[C@@H]2O[C@H](CO)[C@H](O)[C@H](O[C@@H]3O[C@H](CO)[C@H](O)[C@H](O)[C@H]3O)[C@H]2O)[C@@H](CO)O[C@H]1O` [Galb1-3Galb1-4GlcNAcb], the “fluorescence (FL) signal” value is reported as 172.
